Assay results taken from PubChem BioAssay AID1159558 (GlaxoSmithKline (GSK), 2015).
The source made the active and inactive calls.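 How the source made its calls: active means IC50 against T. cruzi CYP51 below a set limit; inactive means the rest.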

Molecular target: Sterol 14-alpha demethylase (Trypanosoma cruzi (strain CL Brener)) (UniProt Q7Z1V1)
Assay: T. cruzi sterol 14-alpha demethylase inhibition – biochemical, recombinant enzyme, mechanism study for T. cruzi antiparasitic project, dose response (AID 1159558);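 further: enzyme in bacterial membranes with Anopheles gambiae CYP reductase and cytochrome b5 partners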
Conditions: recombinant T. cruzi CYP51, BOMCC fluorescence

Sequence of Sterol 14-alpha demethylase (Trypanosoma cruzi (strain CL Brener)) (Q7Z1V1 whole entry, looked up): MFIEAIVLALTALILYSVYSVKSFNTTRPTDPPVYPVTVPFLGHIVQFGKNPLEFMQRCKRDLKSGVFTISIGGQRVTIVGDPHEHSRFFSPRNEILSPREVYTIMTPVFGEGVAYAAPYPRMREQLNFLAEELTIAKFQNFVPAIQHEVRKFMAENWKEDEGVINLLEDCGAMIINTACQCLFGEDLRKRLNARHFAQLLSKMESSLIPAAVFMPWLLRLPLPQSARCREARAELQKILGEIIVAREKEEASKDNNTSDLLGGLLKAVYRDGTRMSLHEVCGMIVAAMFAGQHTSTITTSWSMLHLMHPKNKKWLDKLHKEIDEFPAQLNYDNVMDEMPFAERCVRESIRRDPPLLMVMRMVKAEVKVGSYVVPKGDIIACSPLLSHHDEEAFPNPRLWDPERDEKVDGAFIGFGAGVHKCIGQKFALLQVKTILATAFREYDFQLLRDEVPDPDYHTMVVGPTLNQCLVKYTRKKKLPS

SMILES	IC50
CCn1c(-c2nonc2N)nc2c([C@@H](C)O)ncc(O[C@H](CN)c3ccccc3)c21	25 µM
O=C(c1cc2cc(Cl)ccc2[nH]1)N1CCCCC1c1cccnc1 (stereo not given)	0.063 µM
Cn1cc(CN2CCN(c3ccc4c(c3)CCN(C(=O)[C@H]3C[C@@H]3c3ccccc3)CC4)CC2)cn1	16 µM
CCCc1cc(C(=O)Nc2ncc(-c3cccc(Br)c3)n2C)n[nH]1	25 µM
COc1ccc(S(=O)(=O)Nc2ccccc2OC)cc1NC(=O)CCCc1c[nH]c2ccccc12	> 100 µM (inactive)
CC1(Oc2cncc(Cl)c2)CCN(Cc2cc3ccccc3[nH]2)C1 (stereo not given)	10 µM
Cc1c(C(=O)NCCCCn2ccnc2)oc2c(C)cccc12	0.1 µM
NCc1csc(Nc2cc(Oc3ccccc3)ncn2)n1	0.32 µM
COc1cnc2ccc(=O)n(CCN3CCC(NC(=O)Cc4ccc(Cl)c(Cl)c4)CC3)c2c1	0.79 µM
CCNc1cc(-c2ccccn2)nc(Nc2ccccc2)n1	> 100 µM (inactive)
Cc1ccc2nc(N(Cc3cccnc3)C(=O)CCc3ccccc3)sc2c1	0.063 µM
COc1ccc(OC)c(S(=O)(=O)N(Cc2c(F)cccc2F)[C@@H]2CCN(C#N)C2)c1	> 100 µM (inactive)
CC(C)(C)CC(=O)NCc1noc(COc2ccccc2)n1	50 µM
COc1ccc(C)cc1-c1csc(NC(=O)C(C)n2ccnc2)n1 (stereo not given)	0.04 µM
CCNc1cc(-c2ccccn2)nc(Nc2ccc(OC)cc2)n1	40 µM
Cn1ccnc1CN1CCc2[nH]cnc2C1c1ccccc1OCc1ccccc1 (stereo not given)	7.9 µM
Cn1nc([N+](=O)[O-])nc1N1CCCCC1	> 100 µM (inactive)
O=[N+]([O-])c1ccc(C2=CC(c3ccccc3)=NCCN2)cc1	50 µM
CCN(Cc1nc2ccc(C(=O)N3CCN(c4ncccn4)CC3)cc2[nH]1)C1CCCc2cccnc21 (stereo not given)	7.9 µM
COc1ccc(C2CC(c3ccc(NS(C)(=O)=O)cc3)=NN2C(=O)c2cccs2)cc1OC (stereo not given)	13 µM
Cc1ccc(NC(=O)c2ccc(Cl)c(NC(=O)c3ccc([N+](=O)[O-])cc3)c2)cc1	> 100 µM (inactive)
CCOc1ccc(CN(C)Cc2nc(N)nc(Nc3ccc(C)cc3)n2)cc1	16 µM
CC(=Cc1ccccc1)CN1CCC(=O)N(Cc2cccnc2)CC1	0.1 µM
OCCCNc1nc(Nc2ccncc2)nc2ccccc12	> 100 µM (inactive)
Cc1cc(=O)n2nc(Oc3ccc(C#N)cc3Cl)sc2n1	> 100 µM (inactive)
COc1ccc([N+](=O)[O-])cc1NC(=O)Nc1cccc(Cl)c1	> 100 µM (inactive)
COc1ccc(C(=O)N2CCC(Nc3cccnc3)C2)c(OC)n1 (stereo not given)	0.063 µM

SMILES	IC50
CN(CC1CCCO1)S(=O)(=O)c1ccc(C(=O)Nc2nc(-c3ccccn3)cs2)cc1 (stereo not given)	7.9 µM
Cc1cc(C)cc(NS(=O)(=O)c2cc(-c3cc(C)[nH]n3)ccc2C)c1	7.9 µM
O=C(c1cccc(Cl)c1Cl)N1CCn2c1nc(-c1ccncc1)cc2=O	0.063 µM
O=[N+]([O-])c1ccc(-c2nnn(-c3cccnc3)n2)o1	4 µM
O=C(NCCc1ccccc1Cl)c1cccn1-c1cccnc1	0.079 µM
C[C@@H](Oc1cc(-n2cnc3cc(N)ccc32)sc1C(N)=O)c1ccccc1Cl	3.2 µM
CN(C)CCN(C)Cc1ccc(F)cc1NS(=O)(=O)c1ccc(Cl)c(Cl)c1	> 130 µM (inactive)
CCS(=O)(=O)Nc1ccc(C2=NN(C(=O)c3cccs3)C(c3ccccc3OC)C2)cc1 (stereo not given)	25 µM
COc1ccc(Oc2ccc(C(C)N(C)c3ncc4c(N)nc(N)nc4n3)cc2)cc1 (stereo not given)	1.6 µM
Cn1nccc1NC(=O)Cn1ccc(-c2ccncc2)n1	6.3 µM
O=C(NCC1CCCCC1)c1cnns1	> 100 µM (inactive)
CCOc1ccc(NC(=O)C=Cc2ccc(CC)o2)cc1	> 100 µM (inactive)
Fc1ccc(Nc2nc(-c3ccccn3)cs2)cc1	16 µM
CNC(=O)C1Cc2ccccc2N1C(=O)Cc1ccccc1 (stereo not given)	> 100 µM (inactive)
COc1ccccc1CNc1cc(C2CC2)nc(-c2nccn2C)n1	20 µM
Cc1nnnn1-c1cccc(C(=O)N2CCC[C@@]3(C)c4ncncc4CCC23)c1 (stereo not given in full)	25 µM
CCS(=O)(=O)c1cccc(C(=O)Nc2nc(-c3ccccn3)cs2)c1	63 µM
Cc1ncsc1CNc1cnc(-c2ccc3c(c2)OCCO3)c(-c2cnn(C)c2)c1	7.9 µM
O=C(NC1CCN(C2Cc3ccc(NS(=O)(=O)c4cc(F)cc(F)c4)cc3C2)CC1)C1CC1 (stereo not given)	50 µM
NCC(Cc1ccccc1)NC(=O)c1cnc(-c2c[nH]c3ncccc23)s1 (stereo not given)	1 µM
CC(C)c1cc(Nc2cc(Cc3ccccc3)nc(NC3CCC(O)CC3)n2)n[nH]1 (stereo not given)	20 µM
O=C(c1cccc(Nc2ncc(-c3ccc4c(c3)OCO4)cn2)c1)N1CCOCC1	20 µM
O=C(NC(c1ccc(Cl)cc1)c1cnccn1)C1CCN(C(=O)Nc2cccc(C(F)(F)F)c2)CC1 (stereo not given)	0.13 µM
CC(C)(C)c1csc(NC(=O)c2ccc([N+](=O)[O-])s2)n1	7.9 µM
NC(=O)c1ccccc1Nc1nc(NC2CCCCC2)nc2[nH]ccc12	> 100 µM (inactive)
COc1ccc(C(=O)[C@H]2C[C@@H]2CN(Cc2ccccn2)Cc2ccccn2)cc1	40 µM
CN(CCOc1ccc(Cl)cc1)Cc1nc(N)nc(N(C)C)n1	32 µM

SMILES	IC50
COc1ccc(Nc2nc(-c3ccccn3)cc(N3CCCC(O)C3)n2)cc1 (stereo not given)	50 µM
CN(C)Cc1cccc(Nc2nccc(-c3ccc(NCCN)c(C#N)c3)n2)c1	6.3 µM
O=C(N[C@H](CO)c1ccccc1)c1ccc(-c2c[nH]c3nccc(C(F)(F)F)c23)s1	6.3 µM
O=C(NCC(c1cccs1)N1CCOCC1)c1ccc([N+](=O)[O-])o1 (stereo not given)	10 µM
c1ccc(Nc2nc(-c3ccccn3)cc(N3CCOCC3)n2)cc1	> 100 µM (inactive)
Cc1cnc(Nc2cc(Cc3ccccc3)nc(NC3CCC(O)CC3)n2)s1 (stereo not given)	> 100 µM (inactive)
CCC1Oc2cc(S(=O)(=O)N(C)CC(=O)N3CCc4ccccc4C3)c(C)cc2NC1=O (stereo not given)	0.79 µM
CCCCNc1nccc(-c2c(-c3ccc(F)cc3)nn3c(N4CCOCC4)cccc23)n1	> 100 µM (inactive)
O=C(Nc1nc2cc(Cl)ccc2o1)c1cccc(Cl)c1	> 100 µM (inactive)
O=c1ccc2ccc(F)c3c2n1C[C@H]3CN1CCN(CC(O)c2cc3c(cn2)OCS3)CC1 (stereo not given in full)	> 100 µM (inactive)
Cc1nn(C)c(Cl)c1CN(Cc1cccnc1)Cc1ccsc1	0.063 µM
O=C(Nc1cccc(Cl)c1)N1CCCCC1c1cccnc1 (stereo not given)	0.02 µM
c1ccc(-c2nc(NCc3ccco3)c3ccccc3n2)nc1	> 100 µM (inactive)
CNc1c(C(N)=O)c(-c2ccc3scnc3c2)nn1CC(F)(F)F	> 100 µM (inactive)
COc1cccc(CN(C)Cc2nc(N)c3c(C)c(C)sc3n2)c1	> 100 µM (inactive)
O=c1[nH]cnc2c([C@@H]3O[C@H](CO)[C@@H](O)[C@H]3O)[nH]nc12	> 100 µM (inactive)
COc1ncc(-c2ccc3nccc(-c4ccncc4)c3c2)cc1NS(=O)(=O)C1CC1	7.9 µM
O=c1cc(NCCCNCc2c[nH]c3ccc(Br)cc23)[nH]c2ccccc12	> 100 µM (inactive)
COc1ccccc1-n1c(SCC(=O)Nc2ccc3c(c2)OCO3)nc2c(c1=O)SCC2	63 µM
Cc1ccc(S(=O)(=O)Cn2nnnc2C(c2cccnc2)N2CCN(c3ccccc3)CC2)cc1 (stereo not given)	0.2 µM
O=c1cc(NCCCNC2CCOc3c(I)cc(Cl)cc32)[nH]c2ccccc12 (stereo not given)	16 µM
N#Cc1cccc(Cc2cc(Nc3cc(C4CC4)[nH]n3)nc(N3CC[C@H]3C(N)=O)n2)c1	50 µM
CN(Cc1ccccc1)Cc1nnnn1C1CCN(Cc2ccc(-n3ccnc3)cc2)CC1	0.05 µM
CNC(=O)Oc1ccc(C(=O)NCc2ccccc2)cc1OC(=O)NC	> 100 µM (inactive)
CN(C)c1ccc(N)cc1CN(CC1CCCO1)S(C)(=O)=O (stereo not given)	> 100 µM (inactive)
COc1ccc2c(Cl)c(C(=O)N3CCC3)sc2c1Cl	> 100 µM (inactive)
COc1ccc(-c2cnc(NC(=O)c3ccc(F)cc3)n2C)cc1	10 µM

SMILES	IC50
CC(C)Oc1cccc(N2CCC(C(=O)N3CCCN(C(C)C)CC3)CC2)c1	> 100 µM (inactive)
N#Cc1cc([N+](=O)[O-])ccc1NC1CCCCCC1	> 100 µM (inactive)
COc1ccc(NC(=O)c2ccc(NC(=O)CN(c3ccccc3C)S(C)(=O)=O)cc2)cc1	6.3 µM
COc1ccc(OC)c2c(=O)c(Cc3ccccc3)c(C)[nH]c12	> 100 µM (inactive)
O=C(Nc1n[nH]c(-c2ccccn2)n1)C1CC1c1ccccc1 (stereo not given)	> 100 µM (inactive)
CN1CCCN(C(=O)c2ccc(N3CCCC3)cc2Cl)CC1	> 100 µM (inactive)
Cc1ccc(NC(C)C(=O)Nc2ccc(C#N)cc2)cc1S(=O)(=O)N1CCCCC1 (stereo not given)	16 µM
O=C(Nc1nc(-c2ccc(S(=O)(=O)N3CCOCC3)cc2)cs1)c1ccc([N+](=O)[O-])cc1	> 100 µM (inactive)
CC(C)c1sc(Cl)nc1C(=O)NCCc1nc(C(=O)Nc2ccc3c(c2)OCO3)cs1	7.9 µM
Cc1ccc2c(c1)SC(C(=O)Nc1n[nH]c(-c3ccccn3)n1)C2 (stereo not given)	> 100 µM (inactive)
N#Cc1cccc(CNc2ccc(-c3cnn(CC4CC4)c(=O)c3C#N)cc2)c1	6.3 µM
Cc1cccc(Nc2nc(-c3ccccn3)cs2)n1	20 µM
Cc1cc(-c2cccc3ccccc23)nc2nc(N)nc(N)c12	> 100 µM (inactive)
O=C(NCCc1ccn(-c2ccccc2)n1)C1CCCCC1	100 µM
COc1cccc(NS(=O)(=O)c2ccc3[nH]cc(C(=O)NCCC(C)C)c(=O)c3c2)c1	6.3 µM
O=C1CN(C2CCCc3c(OCc4ccncc4)cccc32)C(=O)N1C1CCCCC1 (stereo not given)	0.02 µM
Nc1nc(-c2ccccc2)cc(-c2nc3ncccc3[nH]2)n1	> 100 µM (inactive)
O=c1[nH]c(NCCCNCc2cc(Br)cc(Br)c2)nc2ccsc12	32 µM
O=C(NCC1CCCCC1)c1cc(=O)c2ccccc2o1	> 100 µM (inactive)
O=C(c1cccc(Nc2ncc(-c3ccc4c(c3)OCO4)cn2)c1)N1CCSC1	16 µM
c1ccc(-c2nc(NC3CCCCC3)cc(C3CC3)n2)nc1	> 100 µM (inactive)
Cc1ccc2onc(Nc3ccnc(Nc4cccc(S(C)(=O)=O)c4)n3)c2c1	40 µM
NCc1ccc2c(Cl)cc(Cl)c(O)c2n1	40 µM
Clc1ccc(CN2CCN(C3=NCCN3)CC2)cc1Cl	> 100 µM (inactive)
